Experimental findings from US20240101540A1, “TARGETED PROTEIN DEGRADATION OF PARP14 FOR USE IN THERAPY” (Ribon Therapeutics, Inc., priority 2022, published 2024) are described below.

The assay has as its target T1, catalytic domain of human PARP14 (residues 1611 to 1801) with NanoLuc tag (Homo sapiens, UniProt Q460N5).
T1 construct: expressed in transfected cells; host or cells: HEK-293T cells (ATCC), pcDNA3.1(-) vector
T1 sequence (Q460N5 1611-1801): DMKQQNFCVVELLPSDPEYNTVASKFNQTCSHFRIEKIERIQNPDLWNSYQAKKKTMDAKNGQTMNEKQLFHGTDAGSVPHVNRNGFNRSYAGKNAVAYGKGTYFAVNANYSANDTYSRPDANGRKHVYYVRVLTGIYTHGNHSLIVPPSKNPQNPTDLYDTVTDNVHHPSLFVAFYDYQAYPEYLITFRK
In words: NanoLuc assay for the degradation of PARP14 (NanoLuc-tagged PARP14 overexpressed in HEK-293T cells, 2 hours). Format: cell-based. The following applies: Assay A (Example A): NanoLuc-tagged PARP14 degradation in HEK-293T cells, read-out: DC50. As for the experimental part: The insert also contained a NanoLuc tag on the N terminus of the PARP14 protein.
Degradation of PARP14 protein was assessed using measurement of the NanoLuc tag as proxy for the PARP14 protein. […] Plasmid DNA was diluted in empty vector DNA then added to 1.163 mL of phenol red free OptiMEM (Thermo Fisher). Plasmid DNA concentrations used in each assay described in Table 1. The plasmid DNA was mixed with 78.5 μL of Fugene HD (Promega) and allowed to incubate 5 minutes.
The transfection was incubated for 24 hrs at 37 degrees in an incubator supplemented with 5% CO2. The cells were then trypsinized and brought up in phenol red free OptiMEM media. […] 40 nL of a dose response curve diluted in DMSO of each test compound was added to the cell plate using a Mosquito (TTP Labtech) and the plate was incubated at 37° C. for 2 hours. Assay plate was brought to room temperature then 20 μL per well of NanoGlo (Promega) was added to the plate. Luminescence was measured on an Envision (Perkin Elmer).
The average DMSO was calculated from 32 wells containing 0.1% DMSO only in columns 12 and 24 of the assay plate. The % of DMSO values were calculated as described below: […]
The % of DMSO values were plotted as a function of compound concentration and the following 4-parameter fit was applied to derive the DC50 values:
where top, bottom, and Hill Coefficient are allowed to float. Y is the % of DMSO and X is the compound concentration
DC50 data for the Example compounds is provided below in Table 2 (“+” is <0.1 μM; “++” is ≥0.1 μM and <1 μM; and “+++” is ≥1 μM).

Usually DC50 stands for the concentration giving 50% degradation. As to `O=C1CCC(N2Cc3cc(C#CCN4CCC(COc5cc(F)c6c(=O)[nH]c(CSC7CCOCC7)nc6c5)CC4)ccc3C2=O)C(=O)N1` (stereo not drawn) [Example 29, 3-(5-(3-(4-(((5-fluoro-4-oxo-2-(((tetrahydro-2H-pyran-4-yl)thio)methyl)-3,4-dihydroquinazolin-7-yl)oxy)methyl)piperidin-1-yl)prop-1-yn-1-yl)-1-oxoisoindolin-2-yl)piperidine-2,6-dione], the DC50 was below 100 nM.

Turning to `O=C1CCC(N2Cc3c(C#CCN4CCC(COc5cc(F)c6c(=O)[nH]c(CSC7CCOCC7)nc6c5)CC4)cccc3C2=O)C(=O)N1` (stereo not drawn) [Example 30, 3-(4-(3-(4-(((5-fluoro-4-oxo-2-(((tetrahydro-2H-pyran-4-yl)thio)methyl)-3,4-dihydroquinazolin-7-yl)oxy)methyl)piperidin-1-yl)prop-1-yn-1-yl)-1-oxoisoindolin-2-yl)piperidine-2,6-dione], the DC50 is below 100 nM.

As to `Cn1c(=O)n(C2CCC(=O)NC2=O)c2cccc(C#CCN3CCC(COc4cc(F)c5c(=O)[nH]c(CSC6CCOCC6)nc5c4)CC3)c21` (stereo not drawn) [Example 31, 3-(4-(3-(4-(((5-fluoro-4-oxo-2-(((tetrahydro-2H-pyran-4-yl)thio)methyl)-3,4-dihydroquinazolin-7-yl)oxy)methyl)piperidin-1-yl)prop-1-yn-1-yl)-3-methyl-2-oxo-2,3-dihydro-1H-benzo[d]imidazol-1-yl)piperidine-2,6-dione], the DC50 was below 100 nM.

Take `O=C1CCN(c2ccc(C#CCN3CCC(COc4cc(F)c5c(=O)[nH]c(CSC6CCOCC6)nc5c4)CC3)cc2)C(=O)N1` [Example 32, 1-(4-(3-(4-(((5-fluoro-4-oxo-2-(((tetrahydro-2H-pyran-4-yl)thio)methyl)-3,4-dihydroquinazolin-7-yl)oxy)methyl)piperidin-1-yl)prop-1-yn-1-yl)phenyl)dihydropyrimidine-2,4(1H,3H)-dione]: the DC50 was below 100 nM.

With `O=C1CCN(c2cccc(C#CCN3CCC(COc4cc(F)c5c(=O)[nH]c(CSC6CCOCC6)nc5c4)CC3)c2)C(=O)N1` [Example 33, 1-(3-(3-(4-(((5-fluoro-4-oxo-2-(((tetrahydro-2H-pyran-4-yl)thio)methyl)-3,4-dihydroquinazolin-7-yl)oxy)methyl)piperidin-1-yl)prop-1-yn-1-yl)phenyl)dihydropyrimidine-2,4(1H,3H)-dione], the DC50 was below 100 nM.

In the case of `O=C1CCC(N2C(=O)c3ccc(N4CCC(CN5CCC(COc6cc(F)c7c(=O)[nH]c(CSC8CCOCC8)nc7c6)CC5)CC4)cc3C2=O)C(=O)N1` (stereo not drawn) [Example 34, 2-(2,6-dioxopiperidin-3-yl)-5-(4-((4-(((5-fluoro-4-oxo-2-(((tetrahydro-2H-pyran-4-yl)thio)methyl)-3,4-dihydroquinazolin-7-yl)oxy)methyl)piperidin-1-yl)methyl)piperidin-1-yl)isoindoline-1,3-dione], the DC50 was below 100 nM.

As to `O=C1CCC(N2C(=O)c3cccc(N4CCC(CN5CCC(COc6cc(F)c7c(=O)[nH]c(CSC8CCOCC8)nc7c6)CC5)CC4)c3C2=O)C(=O)N1` (stereo not drawn) [Example 35, 2-(2,6-dioxopiperidin-3-yl)-4-(4-((4-(((5-fluoro-4-oxo-2-(((tetrahydro-2H-pyran-4-yl)thio)methyl)-3,4-dihydroquinazolin-7-yl)oxy)methyl)piperidin-1-yl)methyl)piperidin-1-yl)isoindoline-1,3-dione], the DC50 is below 100 nM.

Take `O=C1CCC(N2C(=O)c3ccc(N4CC(CN5CCC(COc6cc(F)c7c(=O)[nH]c(CSC8CCOCC8)nc7c6)CC5)C4)cc3C2=O)C(=O)N1` (stereo not drawn) [Example 36, 2-(2,6-dioxopiperidin-3-yl)-5-(3-((4-(((5-fluoro-4-oxo-2-(((tetrahydro-2H-pyran-4-yl)thio)methyl)-3,4-dihydroquinazolin-7-yl)oxy)methyl)piperidin-1-yl)methyl)azetidin-1-yl)isoindoline-1,3-dione]: the DC50 was below 100 nM.

`O=C1CCC(N2C(=O)c3cccc(N4CC(CN5CCC(COc6cc(F)c7c(=O)[nH]c(CSC8CCOCC8)nc7c6)CC5)C4)c3C2=O)C(=O)N1` (stereo not drawn) [Example 37, 2-(2,6-dioxopiperidin-3-yl)-4-(3-((4-(((5-fluoro-4-oxo-2-(((tetrahydro-2H-pyran-4-yl)thio)methyl)-3,4-dihydroquinazolin-7-yl)oxy)methyl)piperidin-1-yl)methyl)azetidin-1-yl)isoindoline-1,3-dione]: the 50% degradation concentration (DC50) is below 100 nM.

Regarding `O=C1CCC(N2Cc3c(cccc3N3CC(CN4CCC(COc5cc(F)c6c(=O)[nH]c(CSC7CCOCC7)nc6c5)CC4)C3)C2=O)C(=O)N1` (stereo not drawn) [Example 38, 3-(4-(3-((4-(((5-fluoro-4-oxo-2-(((tetrahydro-2H-pyran-4-yl)thio)methyl)-3,4-dihydroquinazolin-7-yl)oxy)methyl)piperidin-1-yl)methyl)azetidin-1-yl)-1-oxoisoindolin-2-yl)piperidine-2,6-dione], the DC50 was below 100 nM.

As to `O=C1CCC(N2C(=O)c3cccc(N4CCN(CC5CCN(C(=O)CN6CCC(COc7cc(F)c8c(=O)[nH]c(CCC9CCOCC9)nc8c7)CC6)CC5)CC4)c3C2=O)C(=O)N1` (stereo not drawn) [Example 39, 2-(2,6-dioxopiperidin-3-yl)-4-(4-((1-(2-(4-(((5-fluoro-4-oxo-2-(2-(tetrahydro-2H-pyran-4-yl)ethyl)-3,4-dihydroquinazolin-7-yl)oxy)methyl)piperidin-1-yl)acetyl)piperidin-4-yl)methyl)piperazin-1-yl)isoindoline-1,3-dione], the DC50 was below 100 nM.

For `O=C1CCC(N2C(=O)c3cccc(N4CC(N5CCC(COc6cc(F)c7c(=O)[nH]c(CSC8CCOCC8)nc7c6)CC5)C4)c3C2=O)C(=O)N1` (stereo not drawn) [Example 40, 2-(2,6-dioxopiperidin-3-yl)-4-(3-(4-(((5-fluoro-4-oxo-2-(((tetrahydro-2H-pyran-4-yl)thio)methyl)-3,4-dihydroquinazolin-7-yl)oxy)methyl)piperidin-1-yl)azetidin-1-yl)isoindoline-1,3-dione], the DC50 is below 100 nM.

With `O=C1CCC(N2C(=O)c3ccc(N4CC(N5CCC(COc6cc(F)c7c(=O)[nH]c(CSC8CCOCC8)nc7c6)CC5)C4)cc3C2=O)C(=O)N1` (stereo not drawn) [Example 41, 2-(2,6-dioxopiperidin-3-yl)-5-(3-(4-(((5-fluoro-4-oxo-2-(((tetrahydro-2H-pyran-4-yl)thio)methyl)-3,4-dihydroquinazolin-7-yl)oxy)methyl)piperidin-1-yl)azetidin-1-yl)isoindoline-1,3-dione], the DC50 was below 100 nM.

Turning to `O=C1CCC(N2C(=O)c3ccc(N4CC(N5CCC(COc6cc(F)c7c(=O)[nH]c(CSC8CCOCC8)nc7c6)C(F)(F)C5)C4)cc3C2=O)C(=O)N1` (stereo not drawn) [Example 42, 5-(3-(3,3-difluoro-4-(((5-fluoro-4-oxo-2-(((tetrahydro-2H-pyran-4-yl)thio)methyl)-3,4-dihydroquinazolin-7-yl)oxy)methyl)piperidin-1-yl)azetidin-1-yl)-2-(2,6-dioxopiperidin-3-yl)isoindoline-1,3-dione], the DC50 was below 100 nM.

For the compound `O=C1CCC(N2C(=O)c3ccc(/C=C/CN4CCC(COc5cc(F)c6c(=O)[nH]c(CSC7CCOCC7)nc6c5)CC4)cc3C2=O)C(=O)N1` (stereo not drawn) [Example 43, (E)-2-(2,6-dioxopiperidin-3-yl)-5-(3-(4-(((5-fluoro-4-oxo-2-(((tetrahydro-2H-pyran-4-yl)thio)methyl)-3,4-dihydroquinazolin-7-yl)oxy)methyl)piperidin-1-yl)prop-1-en-1-yl)isoindoline-1,3-dione], the DC50 is below 100 nM.

Take `CN1CCC(SCc2nc3cc(OCC4CCN(c5ccc6c(c5)C(=O)N(C5CCC(=O)NC5=O)C6=O)CC4)cc(F)c3c(=O)[nH]2)CC1` (stereo not drawn) [Example 44, 2-(2,6-dioxopiperidin-3-yl)-5-(4-(((5-fluoro-2-(((1-methylpiperidin-4-yl)thio)methyl)-4-oxo-3,4-dihydroquinazolin-7-yl)oxy)methyl)piperidin-1-yl)isoindoline-1,3-dione]: the DC50 is below 100 nM.

For `O=C1CCC(c2ccc(NCC#CCN3CCC(COc4cc(F)c5c(=O)[nH]c(CSC6CCOCC6)nc5c4)CC3)cc2)C(=O)N1` (stereo not drawn) [Example 45, 3-(4-((4-(4-(((5-fluoro-4-oxo-2-(((tetrahydro-2H-pyran-4-yl)thio)methyl)-3,4-dihydroquinazolin-7-yl)oxy)methyl)piperidin-1-yl)but-2-yn-1-yl)amino)phenyl)piperidine-2,6-dione], the DC50 is below 100 nM.

For `O=C1CCC(Nc2ccc(OCC3CC(N4CCC(COc5cc(F)c6c(=O)[nH]c(CSC7CCOCC7)nc6c5)CC4)C3)cc2)C(=O)N1` (stereo not drawn) [Example 46, 3-((4-((3-(4-(((5-fluoro-4-oxo-2-(((tetrahydro-2H-pyran-4-yl)thio)methyl)-3,4-dihydroquinazolin-7-yl)oxy)methyl)piperidin-1-yl)cyclobutyl)methoxy)phenyl)amino)piperidine-2,6-dione], the DC50 is below 100 nM.
